The nature of the data set: Human HepG2 cell viability assay in 384 well format. In kind it is toxicity, cell-based. Also on record: dose 125 nL, time 70.5 hour; cytotoxicity at 70.5 h: concentration not given beside the values. To be noted: HepG2 cells, read-out: Inhibition.

For the molecule `CN1CCCCc2c1nc1c(c2N)CCCC1`, the cytotoxicity at 70.5 h was -5.71%.

Consider `CSc1nc(N)c2c(n1)N=C1COC(O)=C1C2c1cccc(Cl)c1` (configuration not stated), for which the cytotoxicity at 70.5 h turned out to be 47.4%.

`Cc1ccc(NC(=O)Nc2c(O)oc3ccccc3c2=O)cc1C`: the cytotoxicity at 70.5 h is -5.07%.

In the case of `O=c1c2cc3c(cc2nnn1Cc1ccccc1)OCCO3`, the cytotoxicity at 70.5 h was -2.96%.

For the molecule `CCCNC(=O)c1nn(CC)cc1NC(=O)c1cn(C)nc1C`, the cytotoxicity at 70.5 h was -12.7%.

With `Cc1nn(C)c2c(=O)n(Cc3ccc(F)cc3)nnc12`, the cytotoxicity at 70.5 h was -7.56%.

For the molecule `CCc1nc(NCCn2cccn2)c2c(n1)c(C)nn2C`, the cytotoxicity at 70.5 h was -7.14%.

`Cc1nn(C)c2c(NCc3ccccn3)nc(C(C)C)nc12`: the cytotoxicity at 70.5 h amounted to 20.7%.

For the molecule `Cc1nn(C)c2c(=O)n(C)c(NCC3CCCO3)nc12` (configuration not stated), the cytotoxicity at 70.5 h is -3.29%.

With `COc1ccc(OC)c(Nc2nc3c(C)nn(C)c3c(=O)n2C)c1`, the cytotoxicity at 70.5 h stood at 7.63%.

Turning to `CCn1c(NCc2ccccc2)nc2c(C)nn(C)c2c1=O`, the cytotoxicity at 70.5 h was -9.48%.

Take `c1ccc(OCCNCc2cccs2)nc1`: the cytotoxicity at 70.5 h turned out to be 7.79%.

For the molecule `Fc1cccc(Cl)c1CNCCOc1ccccn1`, the cytotoxicity at 70.5 h is -20.9%.

For the molecule `Cc1ccsc1CNCCCOc1ccccn1`, the cytotoxicity at 70.5 h turned out to be 1.65%.

Turning to `COc1ccc(CNc2n[nH]c(C)n2)cc1`, the cytotoxicity at 70.5 h is -11.8%.

On to `Cc1cccc(CNc2n[nH]c(C)n2)c1`, for which the cytotoxicity at 70.5 h was -5.26%.

Consider `Cc1cc(C)cc(N2CC(c3nnc(N)s3)CC2=O)c1` (configuration not stated), for which the cytotoxicity at 70.5 h was 3.73%.

On to `Cc1c(Cl)cccc1N1CC(c2nnc(N)s2)CC1=O` (configuration not stated), for which the cytotoxicity at 70.5 h came to 5.68%.

Regarding `CCOC(=O)c1sc(NC(=O)CCCC(=O)O)c(C#N)c1C`, the cytotoxicity at 70.5 h is -4.89%.

As for `CCn1cc(S(=O)(=O)N2CCC(C)CC2)c(C)n1`, the cytotoxicity at 70.5 h is -14%.

For `O=S(=O)(c1ccc(F)cc1)n1cc(Cl)cn1`, the cytotoxicity at 70.5 h was -10.6%.

Consider `O=C(c1c(F)cccc1F)N1CCOCC1`, for which the cytotoxicity at 70.5 h turned out to be 18.9%.

With `CCN(Cc1ccncc1)S(C)(=O)=O`, the cytotoxicity at 70.5 h came out at 27.1%.

Consider `CCN1CCN(S(=O)(=O)c2cc(C)c(Cl)cc2C)CC1`, for which the cytotoxicity at 70.5 h was 2.46%.

With `Cc1ccc(CN2CCN(CC(=O)Nc3ccc4nsnc4c3)CC2)o1`, the cytotoxicity at 70.5 h was -5.71%.

As to `CC(C)CCN1CCN(CC(=O)Nc2ccc3nsnc3c2)CC1`, the cytotoxicity at 70.5 h is -11.4%.

`CC1CCC2(CC1)NC(=O)c1cc(Br)ccc1-n1nnnc12` (configuration not stated): the cytotoxicity at 70.5 h was -4.82%.

As for `Cc1cccc(C)c1-n1nnnc1C1(NCc2ccco2)CCCC1`, the cytotoxicity at 70.5 h was -6.25%.

Consider `COc1ccc(-n2nnnc2C(C)(C)Nc2ccc(C)cc2C)cc1`, for which the cytotoxicity at 70.5 h is 40.2%.

Turning to `Cc1nc(N2CCCC2)ncc1-c1cc(O)nc(N2CCCCC2)n1`, the cytotoxicity at 70.5 h is -10.4%.

Turning to `CC(C)C(=O)N1CCC(C)(c2cc(O)[nH]n2)CC1`, the cytotoxicity at 70.5 h is 20%.

As for `Cc1cc(CN(C)Cc2ccccc2N2CCCCC2)n[nH]1`, the cytotoxicity at 70.5 h is 1.54%.

Regarding `COCC(=O)NC[C@H]1CC[C@H](c2nnc(-c3ccncc3)o2)CC1`, the cytotoxicity at 70.5 h was found to be 15.8%.

As for `O=C(NC[C@H]1CC[C@H](c2nnc(-c3cccnc3)o2)CC1)C1CC1`, the cytotoxicity at 70.5 h came to 6.18%.

In the case of `Cc1cncc(C2CCN(C(=O)c3ccc(-n4cccn4)nc3)CC2)n1`, the cytotoxicity at 70.5 h was -2.8%.

For the molecule `COc1ccc2[nH]cc(C(=O)N3C[C@@H](O)[C@H](N4CCCC4)C3)c2c1`, the cytotoxicity at 70.5 h was 17.1%.

For the molecule `CN1CCC(c2cccc(-c3ccc(C(=O)O)cc3)n2)CC1`, the cytotoxicity at 70.5 h is -2.41%.

Regarding `Cc1c(CN2CCCC2(C)C(=O)NC2CCCC2)cnn1C` (configuration not stated), the cytotoxicity at 70.5 h was found to be 5.02%.

With `CNc1nccnc1C1CN(Cc2ccc(OCC(=O)O)cc2)CCO1` (configuration not stated), the cytotoxicity at 70.5 h was -5.37%.

Regarding `Cn1cc(CN2CCCC(c3nc(O)cc(-c4cccs4)n3)C2)cn1` (configuration not stated), the cytotoxicity at 70.5 h was -6.31%.

For `COc1ccc(S(=O)(=O)N2C[C@H](OC)[C@]3(CCCO3)C2)cc1`, the cytotoxicity at 70.5 h was -16.2%.

With `NC(=O)C1(Cc2ccc(-c3ccccc3)cc2)CCNC1` (configuration not stated), the cytotoxicity at 70.5 h was 36.2%.

As for `Cc1ccccc1CC(=O)N1C[C@@H](O)[C@H](N2CCC(F)(F)CC2)C1`, the cytotoxicity at 70.5 h was -7.85%.

In the case of `Cc1c[nH]nc1C1CCN(C(=O)C2CCOCC2)C1` (configuration not stated), the cytotoxicity at 70.5 h was 12.3%.

With `NC(=O)CN1CCC(c2cccc(Oc3ccccc3)n2)CC1`, the cytotoxicity at 70.5 h is -1.34%.

Consider `c1cc(C2CCCN2CC2CCCCC2)n[nH]1` (configuration not stated), for which the cytotoxicity at 70.5 h is -8.35%.

`Cc1nc(C2CCN(c3ccccc3)CC2)no1`: the cytotoxicity at 70.5 h came out at 8.78%.

As for `CC1(C(N)=O)CCCN(c2cnccn2)C1` (configuration not stated), the cytotoxicity at 70.5 h turned out to be 5.53%.

Turning to `CCN(CC)S(=O)(=O)N1CCCC1c1cccc(Nc2ncc(C)s2)n1` (configuration not stated), the cytotoxicity at 70.5 h was -11.3%.

As for `COCC(=O)N1CCCC1(C)c1nc(C)cc(O)n1` (configuration not stated), the cytotoxicity at 70.5 h is -10.5%.

Turning to `CNc1nc(C2CCCN(C(=O)C(C)(C)OC)C2)nc2c1CN(C)CC2` (configuration not stated), the cytotoxicity at 70.5 h is -13.7%.

With `O=C(NC1CC1)c1cc(C2CCCN(Cc3ccccn3)C2)no1` (configuration not stated), the cytotoxicity at 70.5 h is -13.3%.

As for `Cc1cc(C)n(CCNC(=O)c2cc(C3CC3)n[nH]2)n1`, the cytotoxicity at 70.5 h is -4.88%.

On to `COCCC(=O)N1CCC(c2cc3ncc(C)nc3[nH]2)CC1`, for which the cytotoxicity at 70.5 h was -14.7%.

For the molecule `Cc1cnc(Nc2cccc(C3CCCN3C(=O)CO)n2)s1` (configuration not stated), the cytotoxicity at 70.5 h was -6.4%.

For the molecule `CS(=O)(=O)N1CCC(c2ccncn2)CC1`, the cytotoxicity at 70.5 h is -10.9%.

Consider `Cc1c(C(=O)NC2CCCOC2)nnn1-c1ccccc1` (configuration not stated), for which the cytotoxicity at 70.5 h was determined as 17.4%.

`CC(C)Nc1nc(O)cc(C2CC(=O)N(Cc3ccccc3)C2)n1` (configuration not stated): the cytotoxicity at 70.5 h is -7.01%.

Regarding `COc1cccc(C(=O)N2C[C@@H](c3ccccc3)[C@@H]3NCCCC[C@@H]32)c1`, the cytotoxicity at 70.5 h is -8.79%.

Take `O=S(=O)(c1cn[nH]c1)N1CCCC1c1cc[nH]n1` (configuration not stated): the cytotoxicity at 70.5 h was -7.61%.

On to `Cn1cnc(S(=O)(=O)N2CCCC2c2cnccn2)c1` (configuration not stated), for which the cytotoxicity at 70.5 h was -9.6%.

In the case of `COc1ccccc1C1CCCN1CC(=O)N1CCC(C(N)=O)CC1` (configuration not stated), the cytotoxicity at 70.5 h is 22.3%.

In the case of `CN(C)c1cc(C2CCCN(S(=O)(=O)c3cn[nH]c3)C2)ccn1` (configuration not stated), the cytotoxicity at 70.5 h was -1.45%.

With `CN(C)S(=O)(=O)N1CCCC(c2ccncn2)C1` (configuration not stated), the cytotoxicity at 70.5 h is -5.39%.

Turning to `O=C1CCCN1CCCC(=O)N1CCCC(c2ccn[nH]2)C1` (configuration not stated), the cytotoxicity at 70.5 h is -12%.

Regarding `O=C(O)c1ccc(CN2CCC(c3ccnc4ccnn34)CC2)cc1`, the cytotoxicity at 70.5 h was -12%.

`Cc1cnc(CN2C[C@H]3C[C@H](Oc4ccccc4)C[C@H]3C2)cn1`: the cytotoxicity at 70.5 h is 34.2%.

As for `COC(=O)[C@@H]1CN(C(=O)c2cscn2)C[C@H]1c1ccc(OC)cc1`, the cytotoxicity at 70.5 h is -1.39%.

For the molecule `COc1ccc([C@@H]2CN(C(=O)c3cscn3)C[C@H]2C(=O)O)cc1`, the cytotoxicity at 70.5 h is -3.2%.

For `COc1ccccc1CC(=O)NC(C)c1nc2cccnc2n1C(C)C` (configuration not stated), the cytotoxicity at 70.5 h is -1.11%.

With `C=C(C)CN1CCN(Cc2cnc(OC)nc2)CC1`, the cytotoxicity at 70.5 h was 6.5%.

Consider `Cc1cnc(-c2nc(NC3CCCC3)ncc2-c2onc(C)c2C)cn1`, for which the cytotoxicity at 70.5 h was -4.47%.

`Cc1cnc(-c2nc(NC3CC3)ncc2-c2onc(C)c2C)cn1`: the cytotoxicity at 70.5 h is -4.72%.

On to `O=C(O)C1CN(c2cccc(F)c2)CCO1` (configuration not stated), for which the cytotoxicity at 70.5 h was 14.9%.

Consider `Cc1cccc(C(=O)N2CCCC(Cc3cncc4ccccc34)C2)n1` (configuration not stated), for which the cytotoxicity at 70.5 h is -0.949%.

Take `CC(=O)N1CCCC(c2nc(N(C)C)ncc2-c2cccc(F)c2)C1` (configuration not stated): the cytotoxicity at 70.5 h was determined as 3.21%.

Regarding `Fc1cccc(OC2CCN(Cc3ncc[nH]3)CC2)c1`, the cytotoxicity at 70.5 h is 18%.

As for `CNC(=O)c1cn[nH]c1C1CCN(Cc2ccccc2F)C1` (configuration not stated), the cytotoxicity at 70.5 h was -3.84%.

In the case of `Cc1n[nH]cc1C(=O)N1CCCC1c1cc[nH]n1` (configuration not stated), the cytotoxicity at 70.5 h is -5.51%.

For the molecule `COCCN1CC(c2cc(O)nc(NC(C)C)n2)CC1=O` (configuration not stated), the cytotoxicity at 70.5 h was -6.05%.

In the case of `COCCN1CCCC(c2cncc(Oc3ccccc3OC)n2)C1` (configuration not stated), the cytotoxicity at 70.5 h was -3.1%.

In the case of `COCCNC(=O)C1(Cc2ccccc2-c2ccncc2)CCOCC1`, the cytotoxicity at 70.5 h is -9.35%.

Take `Cc1nc(C)n(CC(=O)N2CCCC(c3cc4ccccc4cn3)C2)n1` (configuration not stated): the cytotoxicity at 70.5 h was -5.39%.

Take `CCn1cc(S(=O)(=O)NC2(CN3CCOCC3)CCCCC2)c(C)n1`: the cytotoxicity at 70.5 h is -0.203%.

Take `O=C(CCn1c(C(F)F)cc2cccnc21)NC1CCCCC1`: the cytotoxicity at 70.5 h was -5.83%.

For the molecule `Cc1cc(-c2cnc(C)nc2CN(C)C(=O)c2cc(C3CC3)on2)on1`, the cytotoxicity at 70.5 h is -3.21%.

In the case of `O=C(c1c[nH]nn1)N1CCN(C(c2ccccc2)C(F)(F)F)CC1` (configuration not stated), the cytotoxicity at 70.5 h is -10.3%.

In the case of `CNS(=O)(=O)c1cccc(CNC(=O)CCc2ccsc2)c1`, the cytotoxicity at 70.5 h is -4.01%.

For the molecule `COC(=O)C(C)(C)NC(=O)c1scnc1Cl`, the cytotoxicity at 70.5 h worked out at 0.537%.

Consider `CC1(C)CN(C(=O)CCc2nc(-c3ccncc3)no2)CCO1`, for which the cytotoxicity at 70.5 h was -12%.

`CC1(C)COCCN1C(=O)CCc1nc(-c2ccccn2)no1`: the cytotoxicity at 70.5 h is -18.1%.

For `Cn1ccc(CS(=O)(=O)Cc2ccccc2)cc1=O`, the cytotoxicity at 70.5 h is -12.9%.

`CCC(CC)(CCCNC(=O)c1c(C)noc1C)C1OCCO1`: the cytotoxicity at 70.5 h was -5.03%.

Take `Cc1c(C(=O)O)nnn1-c1cccc2cccnc12`: the cytotoxicity at 70.5 h is -13.1%.

Regarding `COc1ccccc1CNCCc1cccc(C(N)=O)c1`, the cytotoxicity at 70.5 h was -12.3%.

In the case of `COc1cc2cc(C)c(SCCN3CCCC3)nc2cc1OC`, the cytotoxicity at 70.5 h is -6.08%.

As to `CCN1CCc2cc(-c3cncn3CC(=O)NC(C)(C)C)ccc21`, the cytotoxicity at 70.5 h was -6.27%.

Take `CN(C)c1ncc(C2Nc3ccccc3C3=NCCCN32)cn1` (configuration not stated): the cytotoxicity at 70.5 h is -4.88%.

Consider `COCCC(=O)NC1CCN(CC2(c3cccc(F)c3)CCCC2)CC1`, for which the cytotoxicity at 70.5 h was 0.0702%.

Turning to `CCC(CN1CCCC1)NC(=O)Cc1c(C)[nH]c2c(C)cc(C)cc12` (configuration not stated), the cytotoxicity at 70.5 h came out at 12.8%.

As to `Cc1ccc(CN(CCCN(C)C)Cc2cnc(C)n2C)o1`, the cytotoxicity at 70.5 h turned out to be 6.53%.

Consider `Cc1ccc(CN(CCCN2CCOCC2)Cc2[nH]cnc2C)o1`, for which the cytotoxicity at 70.5 h is -2.33%.

Values taken from ChEMBL document CHEMBL3507680, “University of Dundee, Gates Library screen for HepG2 cell viability”.
